# Where “and” joins values, the source holds several entries; their conditions need not be identical. Identical values can stand only once. Calls of active or inactive are those of the source.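 Rule for the calls: active = fitted curve reaching 40% activation at or below the sample's highest valid tested dose; inconclusive = flat fit between 30% and 70%, or poor fit; inactive = the rest, including opposite-direction activity.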
# Target: Kelch-like ECH-associated protein 1 (Homo sapiens) + Nuclear factor erythroid 2-related factor 2 (Homo sapiens) (UniProt Q14145+Q16236)
# Sequence (Q14145 whole entry, looked up): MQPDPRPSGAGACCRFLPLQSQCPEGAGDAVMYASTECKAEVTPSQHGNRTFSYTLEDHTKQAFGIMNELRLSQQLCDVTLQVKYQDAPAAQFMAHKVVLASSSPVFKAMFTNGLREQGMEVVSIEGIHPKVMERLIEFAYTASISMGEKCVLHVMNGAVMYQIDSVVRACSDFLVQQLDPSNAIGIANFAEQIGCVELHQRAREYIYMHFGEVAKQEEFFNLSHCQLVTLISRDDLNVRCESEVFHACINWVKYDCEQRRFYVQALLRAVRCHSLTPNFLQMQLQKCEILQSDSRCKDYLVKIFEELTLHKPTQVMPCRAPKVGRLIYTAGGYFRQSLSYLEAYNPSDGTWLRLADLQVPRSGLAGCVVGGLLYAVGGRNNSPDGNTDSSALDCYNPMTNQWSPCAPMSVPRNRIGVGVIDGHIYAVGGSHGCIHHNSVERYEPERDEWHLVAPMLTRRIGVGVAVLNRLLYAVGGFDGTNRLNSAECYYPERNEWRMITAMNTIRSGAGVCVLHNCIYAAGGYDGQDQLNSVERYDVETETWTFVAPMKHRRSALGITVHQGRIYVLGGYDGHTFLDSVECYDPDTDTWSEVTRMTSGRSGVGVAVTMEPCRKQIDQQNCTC
# Sequence (Q16236 whole entry, looked up): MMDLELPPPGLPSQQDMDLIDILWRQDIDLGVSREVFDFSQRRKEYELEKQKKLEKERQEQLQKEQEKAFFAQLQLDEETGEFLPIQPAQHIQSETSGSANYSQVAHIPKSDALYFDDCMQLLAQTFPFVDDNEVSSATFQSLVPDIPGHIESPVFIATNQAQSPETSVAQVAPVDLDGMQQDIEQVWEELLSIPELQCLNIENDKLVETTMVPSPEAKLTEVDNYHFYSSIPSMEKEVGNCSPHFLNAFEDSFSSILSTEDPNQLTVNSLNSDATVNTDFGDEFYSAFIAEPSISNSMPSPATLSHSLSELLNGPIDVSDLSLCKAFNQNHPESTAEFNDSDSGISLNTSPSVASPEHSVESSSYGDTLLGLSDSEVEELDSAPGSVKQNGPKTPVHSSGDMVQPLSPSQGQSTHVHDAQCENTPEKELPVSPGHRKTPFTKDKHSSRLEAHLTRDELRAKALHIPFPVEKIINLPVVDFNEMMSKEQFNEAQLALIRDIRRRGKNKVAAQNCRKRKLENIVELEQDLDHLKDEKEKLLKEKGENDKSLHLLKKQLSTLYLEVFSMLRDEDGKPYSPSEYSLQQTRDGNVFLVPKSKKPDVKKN
# Experiment: Nrf2 nuclear translocation activators in cells, dose response, orthogonal assay for Keap1-Nrf2 interaction inhibitor project, PathHunter, U2OS cells, dry powder (AID 651833)
# Conditions: beta-gal luminescence, 3 h
row,Structure (SMILES),AC40
1,O=C(NC[C@@H]1c2ccccc2CCN1C(=O)[C@@H]1CCCC[C@@H]1C(=O)O)OCC1c2ccccc2-c2ccccc21,> 38 µM (inactive)
2,Cc1cc(C)c(S(=O)(=O)Nc2cc(C(C(=O)OC(C)C)C(=O)C(F)(F)F)c(O)c3ccccc23)c(C)c1 (stereo not drawn),1.1 µM
3,CC(=O)Nc1cc(NS(=O)(=O)c2c(C)cc(C)cc2C)c2ccccc2c1O,27.2 µM
4,O=C(O)Cc1ccccc1C(=O)N1CCc2ccccc2[C@H]1CN1C(=O)c2ccccc2C1=O,> 38 µM (inactive)
5,O=C(O)C1CCCCC1C(=O)N1CCc2ccccc2C1CN1Cc2ccccc2C1=O (stereo not drawn),> 38 µM (inactive)
6,Cc1ccc(S(=O)(=O)Nc2cc(C(C(=O)OC(C)C)C(=O)C(F)(F)F)c(O)c3ccccc23)c(C)c1 (stereo not drawn),5.12 µM
7,O=C(NC[C@@H]1c2ccccc2CCN1C(=O)[C@@H]1CCCC[C@@H]1C(=O)O)c1ccc(CCl)cc1,> 38 µM (inactive)
8,Cc1ccc(S(=O)(=O)NNc2nc(C(C(=O)OC(C)C)C(=O)C(F)(F)F)nc3ccccc23)cc1 (stereo not drawn),18.5 µM
9,COC(=O)C(C(=O)OC)c1cc(NS(=O)(=O)c2c(C)cc(C)cc2C)c2ccccc2c1O,4.21 µM
10,Cc1ccccc1S(=O)(=O)Nc1cc(C(C(=O)OC(C)C)C(=O)C(F)(F)F)c(O)c2ccccc12 (stereo not drawn),6.97 µM
11,O=C(O)[C@H]1C2C=CC(C2)[C@H]1C(=O)N1CCc2ccccc2C1CN1C(=O)c2ccccc2C1=O (stereo partly drawn),> 38 µM (inactive)
12,Cc1cc(C)c(S(=O)(=O)Nc2nc(C(C(=O)OC(C)C)C(=O)C(F)(F)F)nc3ccccc23)c(C)c1 (stereo not drawn),> 38 µM (inactive)
13,Cc1ccc(S(=O)(=O)NC2=CC(=N[C@@H](C)C(=O)OC(C)(C)C)C(=O)c3ccccc32)c(C)c1,> 38 µM (inactive)
14,Cc1ccc(S(=O)(=O)Nc2cc(C(C(=O)OC(C)C)C(=O)C(F)(F)F)c(O)c3ccccc23)cc1 (stereo not drawn),12.1 µM
15,O=C(Oc1cc(CN2C(=O)c3ccccc3C2=O)c2ccccc2[n+]1[O-])c1cccc(Cl)c1,30 µM
16,O=C(NC[C@@H]1c2ccccc2CCN1C(=O)[C@@H]1CCCC[C@@H]1C(=O)O)c1ccccc1,> 38 µM (inactive)
17,CC(C)OC(=O)C(C(=O)C(F)(F)F)c1cc(NS(=O)(=O)c2ccccc2)c2ccccc2c1O (stereo not drawn),20 µM
18,Cc1ccc(S(=O)(=O)NNc2nc(N3CC(O)CC3C(=O)O)nc3ccccc23)cc1 (stereo not drawn),> 38 µM (inactive)

# Same assay, conditions: beta-gal luminescence, 3 h, at 10 µM (top of the series)
row,Structure (SMILES),activation
1,O=C1c2ccccc2C(=O)N1CC1c2ccccc2CCN1C(=O)Cc1ccccc1 (stereo not drawn),-2.75% (inactive)

# Same assay, conditions: beta-gal luminescence, 3 h, at 38 µM (top of the series)
row,Structure (SMILES),activation
1,O=C(NC[C@@H]1c2ccccc2CCN1C(=O)[C@@H]1CCCC[C@@H]1C(=O)O)c1ccccc1CO,2.2% (inactive)
2,O=C1c2ccccc2C(=O)N1C[C@H]1NCCc2ccccc21,-2.67% (inactive)
3,CCOC(=O)C(C(=O)OCC)c1cc(CNS(=O)(=O)c2ccc(C)cc2C)c2ccccc2n1,1.4% (inactive)
4,NC(=O)c1ccccc1C(=O)NC[C@@H]1c2ccccc2CCN1C(=O)[C@@H]1CCCC[C@@H]1C(=O)O,8.88% (inactive)
5,COC(=O)[C@@H]1CCCC[C@@H]1C(=O)N1CCc2ccccc2[C@H]1CN1C(=O)c2ccccc2C1=O,-2.72% (inactive)
6,Cc1cc(C)c(S(=O)(=O)Nc2ncnc3ccccc23)c(C)c1,2.9% (inactive)
7,O=C(O)C1CCCCC1C(=O)N1CCc2ccccc2[C@H]1C(=O)NC12CC3CC(CC(C3)C1)C2 (stereo partly drawn),-2.47% (inactive)
8,Cc1ccc(S(=O)(=O)NNc2nc(NCC(N)=O)nc3ccccc23)cc1,3% (inactive)
9,O=C(O)[C@H]1CCCC[C@H]1C(=O)N1CCc2ccccc2C1 (racemic),-0.662% (inactive)
10,O=C(O)[C@H]1CCCC[C@H]1C(=O)N1CCc2ccccc2C1CCN1C(=O)c2ccccc2C1=O (stereo partly drawn),0.812% (inactive) and -0.193% (inactive)
11,COC(=O)CNc1nc(NS(=O)(=O)c2c(C)cc(C)cc2C)c2ccccc2n1,3.66% (inactive)
12,O=C(O)[C@H]1CCCC[C@H]1C(=O)N1CCC2=C(CCCC2)C1CN1C(=O)c2ccccc2C1=O (stereo partly drawn),11% (inactive) and -0.217% (inactive)
13,O=C(O)CC(=O)N1CCc2ccccc2C1CN1C(=O)c2ccccc2C1=O (stereo not drawn),2.73% (inactive)
14,O=C1c2ccccc2C(=O)N1C[C@@H]1c2ccccc2CCN1C(=O)C1CCCCC1,0.733% (inactive)
15,O=C(NCCc1ccccc1)c1ccccc1C(=O)NC[C@@H]1c2ccccc2CCN1C(=O)C1CCCCC1C(=O)O (stereo partly drawn),5.09% (inactive)
16,O=C(O)[C@H]1CCCC[C@H]1C(=O)N1CCc2ccccc2[C@H]1CNS(=O)(=O)c1ccc([N+](=O)[O-])cc1,6.37% (inactive)
17,O=C1c2ccccc2C(=O)N1CC1=NCCc2ccccc21,-0.067% (inactive)
18,C[C@@H](NC(=O)C1CCCC[C@H]1C(=O)O)c1ccccc1 (mixture of isomers),-1.8% (inactive)
19,Cc1cc(C)c(S(=O)(=O)Nc2cc(C(C(=O)OCc3ccccc3)C(=O)OCc3ccccc3)c(O)c3ccccc23)c(C)c1,5.34% (inactive)

# Source: PubChem BioAssay AID651833 (Broad Institute, 2012)
